The text below walks through data of ChEMBL document CHEMBL4257081, “Inhibitors of the kynurenine pathway” (2016).

Type in all cases: functional
Experiment [1] deals with Mus musculus. Description: Reduction in plasma kynurenine levels in Balb/C mouse implanted with mouse CT26 cells at 20 mg/kg, po bid for 4 days measured 2 hrs post last dose by LC/MS/MS analysis relative to control. The arrangement: scale not given: the % may be the effect or the level left.
Experiment [2] has as its system Mus musculus. The experiment can be described thus: In vivo inhibition of IDO1 in po dosed LPS-induced C57BL/6 mouse assessed as reduction in plasma kynurenine levels measured after 2 to 48 hrs by LC/MS/MS analysis.
The subject of experiment [3] is Mus musculus. The experiment can be described thus: Reduction in kynurenine levels in tumor of Balb/C mouse implanted with mouse CT26 cells at 20 mg/kg, po bid for 4 days measured 2 hrs post last dose by LC/MS/MS analysis relative to control. Further details: scale not given: the % may be the effect or the level left.

A value given as a limit tells only on which side of the number the result lay.

Regarding `Nc1oc2cnccc2c1Nc1cccc(C(F)(F)F)c1`, the Activity in the experiment with Mus musculus [1] is on record as above 50%; in the experiment on Mus musculus [3] it was “>=25 - 50%”. In addition, the “inhibition (INH)” value in the experiment on Mus musculus [2] is above 50%.
